Laboratory results reported in BindingDB's records for doi:10.1021/jm00213a022 (Sichuan University, 2021).
Peptide text beside a SMILES is read from it. * marks the point of attachment. Cbz = O=C(OCc1ccccc1)*

Legend:
[1] = biological target: Matrix metalloproteinase-9 (Homo sapiens, UniProt P14780); assay: Inhibition of MMP-9 (unknown origin)
[2] = biological target: 72 kDa type IV collagenase (Homo sapiens, UniProt P08253); assay: Inhibition of MMP-2 (unknown origin)
[3] = biological target: T1, Proteasome subunit beta type-7 (Homo sapiens, UniProt Q99436); assay: Inhibition of beta2 proteasome (unknown origin)
T1 sequence (Q99436 whole entry): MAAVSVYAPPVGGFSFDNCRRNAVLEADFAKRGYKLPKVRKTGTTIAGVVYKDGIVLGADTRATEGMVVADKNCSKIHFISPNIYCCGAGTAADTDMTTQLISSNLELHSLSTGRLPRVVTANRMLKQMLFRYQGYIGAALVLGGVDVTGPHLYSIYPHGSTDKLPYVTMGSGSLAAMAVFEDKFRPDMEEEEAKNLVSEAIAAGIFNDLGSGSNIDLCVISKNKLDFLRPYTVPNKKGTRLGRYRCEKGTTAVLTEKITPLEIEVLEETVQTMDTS

[4] = biological target: T2, Proteasome subunit beta type-5 (Homo sapiens, UniProt P28074); assay: Inhibition of beta5 proteasome (unknown origin)
T2 sequence (P28074 whole entry): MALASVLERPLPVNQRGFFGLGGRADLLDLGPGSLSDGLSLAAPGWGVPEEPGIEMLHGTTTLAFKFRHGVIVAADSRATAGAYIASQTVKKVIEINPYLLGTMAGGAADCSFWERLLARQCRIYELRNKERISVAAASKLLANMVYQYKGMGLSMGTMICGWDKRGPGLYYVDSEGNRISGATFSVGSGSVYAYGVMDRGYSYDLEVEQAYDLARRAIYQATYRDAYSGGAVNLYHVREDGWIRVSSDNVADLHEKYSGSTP

[5] = biological target: T3, Proteasome subunit beta type-1 (Homo sapiens, UniProt P20618); assay: Inhibition of beta 1 proteasome (unknown origin)
T3 sequence (P20618 whole entry): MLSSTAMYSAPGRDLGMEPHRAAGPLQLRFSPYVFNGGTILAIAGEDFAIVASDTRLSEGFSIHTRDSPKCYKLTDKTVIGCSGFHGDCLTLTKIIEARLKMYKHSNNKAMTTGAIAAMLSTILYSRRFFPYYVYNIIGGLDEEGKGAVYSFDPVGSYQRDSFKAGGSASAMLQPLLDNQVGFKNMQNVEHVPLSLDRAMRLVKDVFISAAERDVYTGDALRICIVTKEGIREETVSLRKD

[6] = biological target: ATP-dependent Clp protease proteolytic subunit, mitochondrial (Homo sapiens, UniProt Q16740); assay: Agonist activity at human recombinant CLpP (57 to 277 amino acids) expressed in Escherichia coli using fluorogenic peptide AC-WLA-AMC as substrate incubated for 10 mins by fluorescence based assay
[7] = biological target: T4, Procathepsin L (Homo sapiens, UniProt P07711); assay: Binding affinity to Cathepsin L (unknown origin) assessed as inhibition constant
[8] = biological target: T4, Procathepsin L; assay: Inhibition of human cathepsin L
[9] = biological target: T5, Cathepsin K (Homo sapiens, UniProt P43235); assay: Inhibition of human cathepsin K
T5 sequence (P43235 whole entry): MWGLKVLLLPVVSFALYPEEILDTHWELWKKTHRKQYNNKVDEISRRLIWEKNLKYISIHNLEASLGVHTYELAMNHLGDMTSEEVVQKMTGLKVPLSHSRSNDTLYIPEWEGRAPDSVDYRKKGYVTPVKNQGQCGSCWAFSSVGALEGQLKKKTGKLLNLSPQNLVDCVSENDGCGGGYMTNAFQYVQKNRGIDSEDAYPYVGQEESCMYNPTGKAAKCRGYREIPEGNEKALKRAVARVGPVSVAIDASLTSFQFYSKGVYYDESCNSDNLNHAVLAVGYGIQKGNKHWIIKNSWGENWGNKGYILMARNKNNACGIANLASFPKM

Sequence of 72 kDa type IV collagenase (P08253 whole entry): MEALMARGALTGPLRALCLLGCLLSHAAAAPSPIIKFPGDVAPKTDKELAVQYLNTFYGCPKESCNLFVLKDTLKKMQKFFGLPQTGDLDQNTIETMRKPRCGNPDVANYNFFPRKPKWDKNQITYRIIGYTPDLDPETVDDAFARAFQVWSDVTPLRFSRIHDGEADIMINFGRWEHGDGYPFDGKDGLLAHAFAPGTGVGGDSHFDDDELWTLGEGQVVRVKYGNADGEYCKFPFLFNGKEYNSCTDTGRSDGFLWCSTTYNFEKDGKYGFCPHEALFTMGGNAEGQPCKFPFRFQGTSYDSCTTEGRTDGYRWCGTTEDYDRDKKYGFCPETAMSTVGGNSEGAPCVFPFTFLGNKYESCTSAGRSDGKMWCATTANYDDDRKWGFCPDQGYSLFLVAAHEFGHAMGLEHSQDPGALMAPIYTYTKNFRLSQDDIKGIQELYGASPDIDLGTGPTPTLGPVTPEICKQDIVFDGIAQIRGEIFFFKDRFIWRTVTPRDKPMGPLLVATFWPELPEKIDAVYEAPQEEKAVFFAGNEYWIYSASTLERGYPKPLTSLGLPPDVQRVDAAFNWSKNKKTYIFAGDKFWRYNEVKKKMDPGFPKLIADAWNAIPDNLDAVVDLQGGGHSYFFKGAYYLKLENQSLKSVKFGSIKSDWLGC
Sequence of ATP-dependent Clp protease proteolytic subunit, mitochondrial (Q16740 whole entry, the tested form may be a part): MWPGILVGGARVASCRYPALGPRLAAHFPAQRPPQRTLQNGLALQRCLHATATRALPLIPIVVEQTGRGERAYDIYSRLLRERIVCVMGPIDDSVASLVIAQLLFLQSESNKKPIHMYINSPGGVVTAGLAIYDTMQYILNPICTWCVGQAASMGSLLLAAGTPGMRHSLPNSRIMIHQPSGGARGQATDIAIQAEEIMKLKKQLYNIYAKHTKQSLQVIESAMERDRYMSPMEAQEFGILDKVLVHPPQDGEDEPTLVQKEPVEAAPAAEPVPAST
Sequence of Matrix metalloproteinase-9 (P14780 whole entry): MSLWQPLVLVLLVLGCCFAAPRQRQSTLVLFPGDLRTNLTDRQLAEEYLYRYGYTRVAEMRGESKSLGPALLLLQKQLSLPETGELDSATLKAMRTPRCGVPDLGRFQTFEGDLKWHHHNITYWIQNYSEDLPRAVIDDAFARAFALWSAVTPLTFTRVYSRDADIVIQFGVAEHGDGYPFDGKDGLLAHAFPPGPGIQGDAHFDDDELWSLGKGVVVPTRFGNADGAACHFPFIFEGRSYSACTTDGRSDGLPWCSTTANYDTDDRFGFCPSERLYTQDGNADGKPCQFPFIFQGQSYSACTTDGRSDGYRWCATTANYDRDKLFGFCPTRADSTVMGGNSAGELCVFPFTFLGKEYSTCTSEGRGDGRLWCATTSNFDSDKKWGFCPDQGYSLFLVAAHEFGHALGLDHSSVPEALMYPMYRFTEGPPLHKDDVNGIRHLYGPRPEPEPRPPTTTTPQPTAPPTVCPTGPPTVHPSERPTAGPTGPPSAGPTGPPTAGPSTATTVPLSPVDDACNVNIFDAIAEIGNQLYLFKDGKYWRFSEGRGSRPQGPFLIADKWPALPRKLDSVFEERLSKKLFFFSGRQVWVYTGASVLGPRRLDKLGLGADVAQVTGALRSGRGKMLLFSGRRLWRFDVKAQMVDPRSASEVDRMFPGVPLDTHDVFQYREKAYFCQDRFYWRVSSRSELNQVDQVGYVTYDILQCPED
T4 sequence (P07711 whole entry): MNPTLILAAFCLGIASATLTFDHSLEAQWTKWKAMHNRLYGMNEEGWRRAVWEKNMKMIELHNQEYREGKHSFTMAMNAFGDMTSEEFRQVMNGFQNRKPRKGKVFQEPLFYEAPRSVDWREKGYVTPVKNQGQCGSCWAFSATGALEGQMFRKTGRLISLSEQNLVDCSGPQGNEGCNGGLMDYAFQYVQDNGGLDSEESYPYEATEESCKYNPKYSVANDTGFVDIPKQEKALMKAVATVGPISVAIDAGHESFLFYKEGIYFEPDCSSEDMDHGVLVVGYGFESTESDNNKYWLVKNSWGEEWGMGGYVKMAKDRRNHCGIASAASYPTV

SMILES: COc1ccc(S(=O)(=O)N(Cc2cccnc2)[C@@H](CCF)C(=O)NO)cc1
- IC50 [1]: 3 nM
- IC50 [2]: 33 nM

SMILES: O=C1NC2([C@@H](O)[C@@H]3C=CCCC3)C(=O)O[C@H]2[C@H]1CCCl (some centres not stated)
- IC50 [3]: 8 nM
- IC50 [4]: 2.6 nM
- IC50 [5]: 33 nM

SMILES: CC(C)[C@H](O)C12NC(=O)[C@H](C)[C@@H]1OC2=O (some centres not stated)
- IC50 [4]: 47 nM

SMILES: C#Cc1cccc(CN2CCC3=C(C2)C(=O)N(Cc2ccc(C)cc2)C2=NCCN23)c1
- EC50 [6]: 800 nM

SMILES: N#Cc1cccc(CN2CCC3=C(C2)C(=O)N(Cc2ccc(C(F)(F)F)cc2)C2=NCCN23)c1
- EC50 [6]: 120 nM

SMILES: N#Cc1cccc(CN2CCC3=C(C2)C(=O)N(Cc2ccc(Cl)cc2)C2=NCCN23)c1
- EC50 [6]: 120 nM

SMILES: Cn1c2c(c(=O)n(Cc3ccc(Cl)cc3)c1=O)CN(Cc1cccc(C#N)c1)CC2
- EC50 [6]: 135 nM

SMILES: Cc1cccc(CN2CCc3c(c(=O)n(Cc4ccc(C(F)(F)F)cc4)c(=O)n3CCCN)C2)c1
- EC50 [6]: 120 nM

SMILES: COc1ccc(-c2ccc(S(=O)(=O)N(OC(C)C)[C@H](CCC3C(=O)c4ccccc4C3=O)C(=O)NO)cc2)cc1
- IC50 [1]: 0.43 nM
- IC50 [2]: 0.67 nM

SMILES: CCc1ccc(C#Cc2ccc(S(=O)(=O)N[C@H](C(=O)O)C(C)C)s2)cc1
- IC50 [1]: 4.4 nM
- IC50 [2]: 4.8 nM

SMILES: CCN([C@@H](C(=O)O)C(C)C)S(=O)(=O)c1ccc(-c2nc(-c3ccc(C)s3)no2)cc1
- IC50 [1]: 36 nM
- IC50 [2]: 3.7 nM

SMILES: CC(C)C[C@H](NC(=O)OC(C)(C)C)C(=O)N1C[C@H]1C(=O)N1[C@H](C(=O)OCc2ccccc2)[C@@H]1C(=O)OCc1ccccc1
- Ki [7]: 13 nM

SMILES: CC(C)C[C@H](NC(=O)CNC(=O)c1cc(Cl)ccc1Cl)B(O)O
- IC50 [3]: 3500 nM

SMILES: O=C(c1ccccc1)c1ccc(S(=O)(=O)CC(CCCc2ccccc2)C(=O)NO)cc1 (configuration not stated) [2-(4-Benzoyl-benzenesulfonylmethyl)-5-phenyl-pentanoic acid hydroxyamide]
- IC50 [1]: 5 nM
- IC50 [2]: 4 nM

SMILES: CC(C)N1CCN(C2(c3ccc(Oc4ccc(Br)cc4)cc3)C(=O)NC(=O)NC2=O)CC1 [5-[4-(4-Bromo-phenoxy)-phenyl]-5-(4-isopropyl-piperazin-1-yl)-pyrimidine-2,4,6-trione]
- IC50 [1]: 1 nM
- IC50 [2]: 26 nM

SMILES: CC(C)C[C@H](NC(=O)[C@@H](NC(=O)c1cccc(-c2ccccc2)n1)[C@@H](C)O)B(O)O [(R)-1-((2S,3R)-3-hydroxy-2-(6-phenylpicolinamido)butanamido)-3-methylbutylboronic acid]
- IC50 [4]: 1.5 nM

SMILES: N#CN1CC(CNC(=O)C2CCCCC2)C1 [Cyclohexanecarboxylic acid (1-cyano-azetidin-3-ylmethyl)-amide]
- IC50 [8]: 6 nM
- IC50 [9]: 5 nM

SMILES: CC(C)C[C@@H](C=O)NC(=O)[C@H](CC(C)C)NC(=O)[C@H](CC(C)C)NC(=O)OCc1ccccc1 [{1-[(S)-(S)-1-((S)-1-Formyl-3-methyl-butylcarbamoyl)-3-methyl-butylcarbamoyl]-3-methyl-butyl}-carbamic acid benzyl ester] (Cbz-Leu-Leu-Leu-aldehyde)
- IC50 [3]: 1080 nM
